Measurements taken from patent US20050261130A1, “Novel surfactants and formulations” (Monsanto Technology LLC, priority 2000, published 2005).

What was measured:
[1] = Cloud point of aqueous concentrate compositions; format: physicochemical; details: 12 wt % surfactant
Protocol: For aqueous solution concentrates, high temperature storage stability is often indicated by a cloud point of about 50° C. or more. Cloud point of a composition is normally determined by heating the composition until the solution becomes cloudy, and then allowing the composition to cool, with agitation, while its temperature is continuously monitored. A temperature reading taken when the solution clears is a measure of cloud point. A cloud point of 50° C. or more is normally considered acceptable for most commercial purposes for a glyphosate SL formulation. Ideally the cloud point should be 60° C. or more, and the composition should withstand temperatures as low as about −10° C. for up to about 7 days without crystal growth, even in the presence of seed crystals of the glyphosate salt.
Cloud points were measured by heating a small amount of the material in a test tube until the solution became hazy or cloudy then removing the test tube from the heat and observing the temperature at which the solution became clear on cooling. The temperature at which the solution became clear is noted as the cloud point.
Cloud point was determined for certain liquid compositions of Examples 66-69 as follows. A sample of the composition in a test tube was heated in a water bath until it became cloudy. The test tube was then removed from the water bath and the sample stirred with a thermometer until it became clear. The temperature at which the sample became clear was recorded as the cloud point of the composition.

[2] = Brookfield viscosity (Model DV-11, Small Sample Adapter); format: physicochemical; details: 10° C.
Protocol: (§1) Viscosities were measured using a Haake Model VT500(Haake, Inc., Karlsruhe Germany) equipped with the appropriate MV series cup and bob sensor system at a shear rate of 45 sec^−1. The temperature was varied with the attached water bath. For a few samples for which insufficient sample was available the viscosities were measured with a Brookfield Model DV-11 equipped with a Small Sample Adapter (Brookfield Laboratories, Inc., Stoughton, Mass.).

[3] = Compatibility of surfactant with potassium glyphosate concentrate (no phase separation, 50° C., 1 week); format: physicochemical; details: 50° C. oven 1 week; for Compatible w/37% a.e. K + glyphosate at 12 wt % loading: 37 wt. % a.e. potassium glyphosate/12 wt. % surfactant; for Compatible w/40% a.e. K + glyphosate at 10% wt loading: 40 wt. % a.e. potassium glyphosate/10 wt. % surfactant; for Compatible w/45% a.e. K + glyphosate at 15% wt loading: 45 wt. % a.e. potassium glyphosate/15 wt. % surfactant
Protocol: For the 31 wt. % a.e. potassium glyphosate/10 wt. % surfactant compositions: 1.550 g of 40 wt. % a.e. aqueous glyphosate potassium salt solution was weighed into a vial. To the same vial, 0.200 g of surfactant was added. Enough deionized water was then added to the contents to bring the total weight to 2.000g. The mixture was stirred for 2 hours at room temperature and checked to see if a solution had been formed. If a solution was present, the test vial was allowed to stand at room temperature overnight. If a solution was still present, the test vial was placed in a 50° C. oven for 1 week. If no phase separation had occurred in one week, the surfactant being tested was considered “compatible.” All of the surfactants identified in Table 4 were compatible at the 31% a.e. potassium/10 wt. % surfactant loading.
For the 37 wt. % a.e. potassium glyphosate/12 wt. % surfactant compositions: 41.1 g of 45 wt. % a.e. aqueous glyphosate potassium salt was weighed to a container. To the same container was added 6.0 g of surfactant and 2.9 g deionized water for a total weight of 50.0 g. The remainder of the protocol is the same as that described for the 31 wt. % samples. The surfactants identified in Table 4 that were compatible at the 37% a.e. potassium/12 wt. % surfactant loading are indicated in Table 5 below.
For the 40 wt. % a.e. potassium glyphosate/10 wt. % surfactant compositions: 1.79 g of 45 wt. % a.e. aqueous glyphosate potassium salt was weighed into a vial. To the same vial was added 0.2 g of surfactant. The remainder of the protocol is the same as that described for the 31 wt. % samples. The surfactants identified in Table 4 that were compatible at the 40% a.e. potassium/10 wt. % surfactant loading are indicated in Table 5 below.
For the 45 wt. % a.e. potassium glyphosate/15 wt. % surfactant compositions: 1.100 g of solid mono potassium glyphosate was weighed into a vial. To the same vial was added 0.300 g surfactant. Enough deionized water was added to the vial to bring the final weight to 2.000 g. The remainder of the protocol is the same as that described for the 31 wt. % samples. The surfactants identified in Table 4 that were compatible at the 45% a.e. potassium/[…] are indicated in Table 5 below.

[4] = Compatibility of surfactant with diammonium glyphosate concentrate (no phase separation, 50° C., 1 week); format: physicochemical; details: 50° C. oven 1 week; for Compatible w/31% a.e. diammonium glyphosate at 10 wt % loading: 31 wt. % a.e. diammonium glyphosate/10 wt. % surfactant; for Compatible w/37% a.e. diammonium glyphosate at 12 wt % loading: 37 wt. % a.e. diammonium glyphosate/12 wt. % surfactant
Protocol: For the 31 wt. % a.e. NH4^+glyphosate/10 wt. % surfactant compositions: • 1.48 g of 41.9 wt % a.e. aqueous glyphosate diammonium (1.7 eq) salt was weighed into a vial. To the same vial was added 0.2 g of surfactant and 0.32 g deionized water. The remainder of the protocol is the same as that described for the 31 wt % potassium glyphosate samples. The surfactants identified in Table 4 that were compatible at the 31% a.e. ammonium/10 wt. % surfactant loading are indicated in Table 5 below.
For the 37 wt. % a.e. NH4^+glyphosate/12 wt. % surfactant compositions: • 1.76 g of 41.9 wt % a.e. aqueous glyphosate diammonium (1.7 eq) salt was weighed into a vial. To the same vial was added […]. The remainder of the protocol is the same as that described for the 31 wt % potassium glyphosate samples. The surfactants identified in Table 4 that were compatible at the 37% a.e. ammonium/12 wt. % surfactant loading are indicated in Table 5 below.

[5] = Haake viscosity (Haake VT500, shear rate 45 sec^−1); format: physicochemical; details: 12 wt % surfactant
Protocol: as §1

[6] = cited from earlier work
[7] = Specific gravity (Mettler DA-300 Density/Specific Gravity Meter); format: physicochemical; details: 20/15.6° C.; 30% a.e. by weight glyphosate monobasic salt solutions
Protocol: Specific gravities are measured using a Mettler DA-300 Density/Specific Gravity Meter.

[8] = Density of formulations (Mettler DA-300 Density Meter); format: physicochemical; details: 20° C.; 50.0% glyphosate acid (61% potassium glyphosate) solution of Example A
Protocol: The density was then determined using a Mettler DA-300 Density Meter and the concentrations in grams per liter was calculated.

[9] = system: Velvetleaf (ABUTH) and Japanese millet (ECHCF); experiment: Greenhouse herbicidal effectiveness, overall statements for both weeds; format: in vivo, Abutilon theophrasti; Echinochloa crus-galli; details: summary sentence of the respective Example
Source text: The herbicidal effectiveness data set forth herein report “inhibition” as a percentage following a standard procedure in the art which reflects a visual assessment of plant mortality and growth reduction by comparison with untreated plants, made by technicians specially trained to make and record such observations. In all cases, a single technician makes all assessments of percent inhibition within any one experiment or trial. Such measurements are relied upon and regularly reported by Monsanto Company in the course of its herbicide business.
The following procedure was used for testing compositions of the Examples to determine herbicidal effectiveness, except where otherwise indicated. […]
Pots were assigned to different treatments in a fully randomized experimental design with 6 replications. A set of pots was left untreated as a reference against which effects of the treatments could later be evaluated.
Application of glyphosate compositions was made by spraying with a track sprayer fitted with a 9501 E nozzle calibrated to deliver a spray volume of 93 liters per hectare (l/ha) at a pressure of 165 kilopascals (kPa). After treatment, pots were returned to the greenhouse until ready for evaluation. […]

| Compound | Cloud Point Data 37% a.e. K + glyphosate at 12 wt % loading [1] | Compatible w/37% a.e. K + glyphosate at 12 wt % loading [3] | Compatible w/45% a.e. K + glyphosate at 15% wt loading [3] | Compatible w/31% a.e. diammonium glyphosate at 10 wt % loading [4] | Compatible w/37% a.e. diammonium glyphosate at 12 wt % loading [4] | Viscosity Data 37% a.e. K + glyphosate at 12 wt % loading, Haake Vis. ([5]; 0° C.) | Viscosity Data 37% a.e. K + glyphosate at 12 wt % loading, Haake Vis. ([5]; 5° C.) | Viscosity Data 37% a.e. K + glyphosate at 12 wt % loading, Haake Vis. ([5]; 10° C.) | Viscosity Data 37% a.e. K + glyphosate at 12 wt % loading, Haake Vis. ([5]; 15° C.) | Viscosity Data 37% a.e. K + glyphosate at 12 wt % loading, Haake Vis. ([5]; 25° C.) | Viscosity Data 37% a.e. K + glyphosate at 12 wt % loading, Haake Vis. ([5]; −5° C.) | Viscosity Data 37% a.e. K + glyphosate at 12 wt % loading, Brookfield Vis. ([2]; Spindle 31, 12 rpm) | Viscosity Data 37% a.e. K + glyphosate at 12 wt % loading, Brookfield Vis. ([2]; Spindle 31, 60 rpm) | further results |
| --- | --- | --- | --- | --- | --- | --- | --- | --- | --- | --- | --- | --- | --- | --- |
| CCCCCCCCNCC(O)C(O)C(O)C(O)CO (centres unmarked) [AA] | >90 °C | Yes | Yes | Yes | Yes | – | – | – | – | – | – | – | – | Viscosity Data 37% a.e. K + glyphosate at 12 wt % loading, Brookfield Viscosity ([2]; Spindle 31, 12 rpm): 12 rpm, 52.6 cPs; Viscosity Data 37% a.e. K + glyphosate at 12 wt % loading, Brookfield Viscosity ([2]; Spindle 31, 60 rpm): 60 rpm, 60.1 cPs; Compatible w/40% a.e. K + glyphosate at 10% wt loading [3]: Yes |
| NCCOCCOCCN [DD] | >90 °C | Yes | – | – | – | 231.17 cPs | 150.26 cPs | 138.80 cPs | 82.51 cPs | 49.37 cPs | 397.16 cPs | – | – | – |
| CCCCN(CCCC)CCCN [F] | >90 °C | Yes | Yes | – | – | 273.01 cPs | 173.57 cPs | 142.38 cPs | 110.89 cPs | 57.29 cPs | 400.48 cPs | – | – | Compatible w/40% a.e. K + glyphosate at 10% wt loading [3]: Yes |
| CC(C)CC(C)CC(C)COCCCNCCCN (centres unmarked) [R] | >90 °C | Yes | – | – | – | 2517 cPs | 2269 cPs | 1963 cPs | 1420 cPs | 1077 cPs | −5° C., too thick | – | – | – |
| CCCCCCCCCCCCCCCCCCN(C)CC(O)C(O)C(O)C(O)CO (centres unmarked) [SS] | – | Yes | – | No | No | – | – | – | – | – | – | 12 rpm, 86.5 cp | 60 rpm, 88.2 cp | – |
| CCCCCCN(CCCN(CCCCCC)CC(O)C(O)C(O)C(O)CO)CC(O)C(O)C(O)C(O)CO (centres unmarked) [Surfactant AAA, 1,6 hexylaminoglucitol propane] | – | Yes | Yes | Yes | Yes | – | – | – | – | – | – | 12 rpm, 76.5 cp | 60 rpm, 78.2 cp | – |
| CCCCCCCCN(C)CC(O)C(O)C(O)C(O)CO (centres unmarked) [UU] | – | Yes | – | No | No | – | – | – | – | – | – | 12 rpm, 114 cp | 60 rpm, 113 cp | – |
| O=C(O)CNCP(=O)(O)O [glyphosate, N-phosphonomethylglycine] | – | – | – | – | – | – | – | – | – | – | – | – | – | Solubility in water ([6]; 25° C.): 1.16 % by weight |
| O=C(O)CNCP(=O)([O-])O.[K+] [potassium, glyphosate potassium salt] | – | – | – | – | – | – | – | – | – | – | – | – | – | Specific Gravity [7]: 1.2539; Density of the resulting solution [8]: approximately 1.4661 grams/milliliter; Solubility in pure water ([6]; 20° C., as salt): about 54 % by weight; Solubility in pure water, glyphosate acid equivalent ([6]; 20° C.): about 44 % glyphosate acid equivalent (a.e.) by weight |
| (C12-14)O(CHCH3CH2)O—(CHCH3CH2)N(EO)x(EO)y x + y = 5 [Composition M121] | – | – | – | – | – | – | – | – | – | – | – | – | – | Herbicidal effectiveness overall or on both ABUTH and ECHCF, comparison in words [9]: more effective for potentiating the IPA |
